Measured values from PMC2955773 (ACS chemical biology, 2010).

What was measured:
Assay type in all cases: cell-based
[1] = target: T1, Nox4 (Homo sapiens, UniProt Q9NPH5); assay: HEK293-Nox4 selectivity assay
T1 sequence (Q9NPH5 1-578): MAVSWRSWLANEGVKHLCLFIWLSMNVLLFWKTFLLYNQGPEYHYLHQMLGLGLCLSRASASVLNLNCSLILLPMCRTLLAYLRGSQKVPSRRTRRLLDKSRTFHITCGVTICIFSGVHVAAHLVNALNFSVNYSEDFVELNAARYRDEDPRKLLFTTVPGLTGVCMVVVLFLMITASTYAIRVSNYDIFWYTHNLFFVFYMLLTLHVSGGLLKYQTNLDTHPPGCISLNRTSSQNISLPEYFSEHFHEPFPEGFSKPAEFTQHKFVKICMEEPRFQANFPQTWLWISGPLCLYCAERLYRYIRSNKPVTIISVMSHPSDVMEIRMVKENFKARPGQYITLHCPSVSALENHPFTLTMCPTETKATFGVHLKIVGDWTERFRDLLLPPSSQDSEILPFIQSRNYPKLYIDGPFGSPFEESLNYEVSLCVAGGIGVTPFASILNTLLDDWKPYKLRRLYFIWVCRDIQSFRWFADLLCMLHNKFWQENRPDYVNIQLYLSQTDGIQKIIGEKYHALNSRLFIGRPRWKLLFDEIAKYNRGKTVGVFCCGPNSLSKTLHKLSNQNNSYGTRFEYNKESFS
T1 sequence (P13498 2-195 partner limits assumed): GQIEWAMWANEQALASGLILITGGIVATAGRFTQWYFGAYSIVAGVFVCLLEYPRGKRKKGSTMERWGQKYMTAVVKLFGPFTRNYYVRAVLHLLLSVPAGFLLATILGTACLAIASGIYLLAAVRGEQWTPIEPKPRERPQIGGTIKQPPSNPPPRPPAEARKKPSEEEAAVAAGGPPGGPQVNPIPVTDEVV

[2] = target: T2, Nox3 (Homo sapiens, UniProt Q9HBY0); assay: HEK293-Nox3 selectivity assay
T2 sequence (Q9HBY0 1-568): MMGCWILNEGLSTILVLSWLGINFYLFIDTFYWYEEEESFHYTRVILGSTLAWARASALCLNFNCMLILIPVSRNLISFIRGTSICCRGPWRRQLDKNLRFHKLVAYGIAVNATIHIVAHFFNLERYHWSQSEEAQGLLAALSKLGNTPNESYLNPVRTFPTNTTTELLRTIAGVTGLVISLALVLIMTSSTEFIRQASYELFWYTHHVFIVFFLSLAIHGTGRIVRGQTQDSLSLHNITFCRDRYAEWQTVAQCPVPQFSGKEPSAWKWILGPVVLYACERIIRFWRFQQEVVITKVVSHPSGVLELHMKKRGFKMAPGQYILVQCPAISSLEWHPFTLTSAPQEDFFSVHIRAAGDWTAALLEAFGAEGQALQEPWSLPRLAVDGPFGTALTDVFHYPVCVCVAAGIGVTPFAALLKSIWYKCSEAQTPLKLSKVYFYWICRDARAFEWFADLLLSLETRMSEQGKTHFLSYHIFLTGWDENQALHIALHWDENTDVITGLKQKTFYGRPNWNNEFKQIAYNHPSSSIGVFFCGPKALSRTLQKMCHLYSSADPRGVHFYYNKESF
T2 sequence (P13498 2-195 partner limits assumed): T1 sequence (P13498 2-195 partner limits assumed)

[3] = tested on: HT29 cells; assay: CellTiter Glo toxicity assay; conditions: 10 μM in HT29 cells
[4] = target: T3, Nox2 (Homo sapiens, UniProt P04839); assay: HEK293-Nox2 selectivity assay
T3 sequence (P04839 2-570 limits assumed): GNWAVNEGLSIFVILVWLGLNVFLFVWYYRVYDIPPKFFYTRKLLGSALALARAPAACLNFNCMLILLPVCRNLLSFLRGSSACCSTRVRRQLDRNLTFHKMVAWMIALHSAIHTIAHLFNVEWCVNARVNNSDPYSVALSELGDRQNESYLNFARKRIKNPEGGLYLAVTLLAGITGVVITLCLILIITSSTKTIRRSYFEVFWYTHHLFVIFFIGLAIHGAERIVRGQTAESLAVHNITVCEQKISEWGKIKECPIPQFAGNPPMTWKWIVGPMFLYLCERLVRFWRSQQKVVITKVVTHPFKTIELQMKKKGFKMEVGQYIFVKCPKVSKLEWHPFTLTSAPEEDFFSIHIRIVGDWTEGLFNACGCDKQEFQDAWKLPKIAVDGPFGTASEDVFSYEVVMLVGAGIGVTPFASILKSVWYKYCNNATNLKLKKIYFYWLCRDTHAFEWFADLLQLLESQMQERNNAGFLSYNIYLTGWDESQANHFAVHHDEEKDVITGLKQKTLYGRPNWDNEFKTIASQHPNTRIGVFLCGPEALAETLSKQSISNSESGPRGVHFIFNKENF
T3 sequence (P13498 2-195 partner limits assumed): T1 sequence (P13498 2-195 partner limits assumed)

activity on other Nox isoforms [1]: only a marginal activity
activity on other Nox isoforms [2]: only a marginal activity
activity on other Nox isoforms [4]: only a marginal activity
SMILES: FC(F)(F)c1ccc2c(c1)Nc1ccccc1S2
cell death [3]: did not cause cell death
